The conditions of assay [1]: cited from earlier work.
Assay [2] in a line: [3H]IP3-binding activity, Scatchard plot analysis. On the procedure: The IP3-binding activities of these fusion proteins were measured mainly by the method of Yoshikawa et al (1996).
Each fusion protein (IP3 sponge) (0.2 μg) was mixed with 100 μl of binding buffer-α (50 mM Tris-HCl (pH 8.0 at 4° C.), 1 mM EDTA, 1 mM β-mercaptoethanol) that contained 9.6 nM D-myo-[^3H](1,4,5)IP3 (777 GBq/mmol; DuPont NEN) (hereinafter, abbreviated as “[^3H]IP3”) and various concentrations of non-labeled D-myo-(1,4,5)IP3 (Dojindo) (hereinafter, abbreviated as “cold IP3”). The mixture was left to stand on ice for 10 minutes. To the mixture, 4 μl of 50 mg/ml γ-globulin (Sigma) (final concentration: 1 mg/ml) and 100 μl of 30% PEG 6000 (Sigma)/binding buffer-a solution (final concentration: 15%) were added. The resultant mixture was left to stand on ice for 5 minutes, and then centrifuged at 10,000×g at 2° C. for 5 minutes to collect polypeptide/PEG complex. PEG-precipitated [^3H]IP3-binding polypeptide was well solubilized with 180 μl solubilizer Solvable (DuPont NEN). The resultant was neutralized with 18 μl glacial acetic acid and then added to 5 ml liquid scintillation counter (Atomlight [DuPont NEN]) to measure the radioactivity (first radioactivity). Non-specific binding of each protein was determined by measuring the second radioactivity in the presence of 2 μM or 10 μM cold IP3. Then, a specific binding value of each protein was obtained by subtracting the second radioactivity (non-specific binding value) from the first radioactivity values.
Scatchard plot analysis was conducted under the following conditions. For low-affinity polypetides (G224-m30 and control GST), the binding experiment was conducted in 100 μl binding buffer a by adding 9.6 nM [^3H]IP3 (DuPont NEN) and 10–20 nM of cold IP3 to 2 μg of IP3-binding polypeptide, and by adding 9.6 nM [^3H]IP3 (DuPont NEN) and 50 nM-2 μM of cold IP3 to 0.01 μg IP3-binding polypeptide. For high-affinity IP3 sponges (G224 and G224-m49), binding experiment was conducted with 0.02 μg IP3 sponges at [^3H]-IP3 concentrations of 0.15, 0.3, 0.6, 1.2, 2.4, 4.8 and 9.6 nM without adding cold IP3.

Assay [3] addresses T1, IP3 receptor of cerebellar microsome (Mus musculus, UniProt P11881).
T1 construct: Mouse cerebellum is a tissue that is rich in IP3 receptor; from tissue; host or cells: mouse (ddY) cerebellum, microsomal fraction
Description: Inhibition of [3H]IP3 binding of cerebellar microsome by IP3 sponges. The conditions noted are these: 40 μg cerebellar microsome, 9.6 nM [3H]IP3, 100 μl (FIG. 4). The method, then: The inhibition effects of the IP3-binding polypeptides (IP3 sponges) on [H]IP3-binding activity of cerebellar microsome was analyzed as follows.
A microsomal fraction was prepared from the cerebella of mice ddY (Nippon SLC) mainly by following the method of Nakada et al. (Nakada S. et al., Biochem. J. 277:125–131, 1991). In 100 μl of binding buffer α, various concentrations of the IP3 sponges were added respectively to see the changes in the binding between the cerebellar microsome (40 μg) and 9.6 nM [^3H]-IP3 according to the above method (see Scatchard plot analysis).
Mouse cerebellum is a tissue that is rich in IP3 receptor and whose microsomal fraction has a [^3H]IP3-binding activity which is at least 50 times higher than those in other tissues (Maeda et al., 1990 (supra)). […] It was calculated that, there were about 0.92 pmol of IP3-binding site of cerebellum IP3 receptor and 0.96 pmol of [^3H]IP3 present in the 100 μl solution.

In assay [4] the target is T2, IP3 receptor on cerebellar microsome (Mus musculus, UniProt P11881).
T2 construct: Mouse cerebellum is a tissue that is rich in IP3 receptor; from tissue; host or cells: mouse (ddY) cerebellum, microsomal fraction
Nature of the assay: Inhibition of IP3-induced Ca2+ release (IICR) from cerebellar microsome, fura-2. Type of assay: biochemical. On the procedure:
To conduct a test of inhibiting IP3-induced Ca^2+ release, a microsomal fraction was prepared from mouse cerebellum as described in Example 3. The fraction was suspended in Buffer B, dispensed, and stored at −80° C. until it was used.
Composition of Buffer B was 110 mM KCl, 10 mM NaCl, 5 mM KH2PO4, 1 mM DDT, and 50 mM HEPES-KOH (pH 7.2) (containing a cocktail of protease inhibitors [0.1 mM PMSF, 10 μM leupeptin, 10 μM pepstatin A, 10 μM E-64] and 2 mM MgCl2).
An IP3-induced Ca^2+ release activity of cerebellar microsome was determined by using fura-2 (Molecular Probe) as a fluorescent Ca^2+ indicator. Specifically, excitations upon addition of IP3 at two wavelengths (340 nm and 380 nm) were measured with fluorescence spectrophotometer CAF110 (Nihon Bunko) to see the change in the fluorescent intensity ratio (F340/F380) at 500 nm.
IP3-induced Ca^2+ release from the cerebellar microsome is generally EC50=100–200 nM IP3. Cerebellar microsome (100 μg) was mixed with 500 μl of a release buffer (Buffer B containing 1 mM MgCl2, 2 μM fura-2, 1 mM DTT, 10 mM creatine phosphate, 40 U/ml creatine kinase, 1 μg/ml oligomycin, and the cocktail of protease inhibitors) in a measurement cuvette with a stirrer bar. The following reaction was conducted at 30° C. while constantly stirring with the stirrer bar.
One mM of ATP was added to the mixture in the cuvette to activate Ca^2+ pumping (Ca^2+-ATPase), whereby Ca^2+ was incorporated into the inner space of microsome (Ca^2+ loading). Ca^2+ loading was confirmed by monitoring until the decrease of fura-2 fluorescent level became constant. The change in the fura-2 fluorescent intensity ratio was measured (F340/F380) at a subthreshold level.
The effect of IP3 sponge on inhibiting IP3-induced Ca^2+ release activity of cerebellar microsome was analyzed as follows. After the addition of ATP, the curve of fura-2 fluorescent intensity was monitored until the decrease became constant. Then, various concentrations of IP3 sponges were added. After 1 min., 50 nM to 1 μM of IP3 was added to the reaction mixture to observe the change of fura-2 fluorescent intensity induced by the IP3.
The IP3 sponge concentration dependency was determined as follows. High affinity polypeptide G224 of 3.125, 6.25, 12.5, 25, 50, 100, 200 μg/ml were added to the reaction mixture, respectively. After about 1 min., 100 nM of IP3 was added to measure the Ca^2+ release activity induced by the IP3. The concentration dependency of low affinity polypeptide G224-m30 was determined by adding G224-m30 of 200, 400 and 500 μg/ml. After about 1 min., 100 nM of IP3 was added to measure the Ca^2+ release activity induced by the IP3. In addition, G224-m30 of 500 μg/ml was also added, and after about 1 min., 50 nM of IP3 was added to measure the Ca^2+ release activity induced by the IP3.

A short description of assay [5]: [3H]IP3-binding activity, Scatchard plot analysis. The source holds these as a separate data set.
[6] abbreviates: purified protein, [3H]IP3 binding.
[7] abbreviates: purified IP3 receptor, Maeda et al. 1990.

Values joined by “and” are separate entries in the source; they are usually repeats but may differ in a detail not shown here. Equal entries are not always repeated. Where two headings read alike, the source gives them in different places.

T2 sequence (P11881 whole entry N1264K/P2675L): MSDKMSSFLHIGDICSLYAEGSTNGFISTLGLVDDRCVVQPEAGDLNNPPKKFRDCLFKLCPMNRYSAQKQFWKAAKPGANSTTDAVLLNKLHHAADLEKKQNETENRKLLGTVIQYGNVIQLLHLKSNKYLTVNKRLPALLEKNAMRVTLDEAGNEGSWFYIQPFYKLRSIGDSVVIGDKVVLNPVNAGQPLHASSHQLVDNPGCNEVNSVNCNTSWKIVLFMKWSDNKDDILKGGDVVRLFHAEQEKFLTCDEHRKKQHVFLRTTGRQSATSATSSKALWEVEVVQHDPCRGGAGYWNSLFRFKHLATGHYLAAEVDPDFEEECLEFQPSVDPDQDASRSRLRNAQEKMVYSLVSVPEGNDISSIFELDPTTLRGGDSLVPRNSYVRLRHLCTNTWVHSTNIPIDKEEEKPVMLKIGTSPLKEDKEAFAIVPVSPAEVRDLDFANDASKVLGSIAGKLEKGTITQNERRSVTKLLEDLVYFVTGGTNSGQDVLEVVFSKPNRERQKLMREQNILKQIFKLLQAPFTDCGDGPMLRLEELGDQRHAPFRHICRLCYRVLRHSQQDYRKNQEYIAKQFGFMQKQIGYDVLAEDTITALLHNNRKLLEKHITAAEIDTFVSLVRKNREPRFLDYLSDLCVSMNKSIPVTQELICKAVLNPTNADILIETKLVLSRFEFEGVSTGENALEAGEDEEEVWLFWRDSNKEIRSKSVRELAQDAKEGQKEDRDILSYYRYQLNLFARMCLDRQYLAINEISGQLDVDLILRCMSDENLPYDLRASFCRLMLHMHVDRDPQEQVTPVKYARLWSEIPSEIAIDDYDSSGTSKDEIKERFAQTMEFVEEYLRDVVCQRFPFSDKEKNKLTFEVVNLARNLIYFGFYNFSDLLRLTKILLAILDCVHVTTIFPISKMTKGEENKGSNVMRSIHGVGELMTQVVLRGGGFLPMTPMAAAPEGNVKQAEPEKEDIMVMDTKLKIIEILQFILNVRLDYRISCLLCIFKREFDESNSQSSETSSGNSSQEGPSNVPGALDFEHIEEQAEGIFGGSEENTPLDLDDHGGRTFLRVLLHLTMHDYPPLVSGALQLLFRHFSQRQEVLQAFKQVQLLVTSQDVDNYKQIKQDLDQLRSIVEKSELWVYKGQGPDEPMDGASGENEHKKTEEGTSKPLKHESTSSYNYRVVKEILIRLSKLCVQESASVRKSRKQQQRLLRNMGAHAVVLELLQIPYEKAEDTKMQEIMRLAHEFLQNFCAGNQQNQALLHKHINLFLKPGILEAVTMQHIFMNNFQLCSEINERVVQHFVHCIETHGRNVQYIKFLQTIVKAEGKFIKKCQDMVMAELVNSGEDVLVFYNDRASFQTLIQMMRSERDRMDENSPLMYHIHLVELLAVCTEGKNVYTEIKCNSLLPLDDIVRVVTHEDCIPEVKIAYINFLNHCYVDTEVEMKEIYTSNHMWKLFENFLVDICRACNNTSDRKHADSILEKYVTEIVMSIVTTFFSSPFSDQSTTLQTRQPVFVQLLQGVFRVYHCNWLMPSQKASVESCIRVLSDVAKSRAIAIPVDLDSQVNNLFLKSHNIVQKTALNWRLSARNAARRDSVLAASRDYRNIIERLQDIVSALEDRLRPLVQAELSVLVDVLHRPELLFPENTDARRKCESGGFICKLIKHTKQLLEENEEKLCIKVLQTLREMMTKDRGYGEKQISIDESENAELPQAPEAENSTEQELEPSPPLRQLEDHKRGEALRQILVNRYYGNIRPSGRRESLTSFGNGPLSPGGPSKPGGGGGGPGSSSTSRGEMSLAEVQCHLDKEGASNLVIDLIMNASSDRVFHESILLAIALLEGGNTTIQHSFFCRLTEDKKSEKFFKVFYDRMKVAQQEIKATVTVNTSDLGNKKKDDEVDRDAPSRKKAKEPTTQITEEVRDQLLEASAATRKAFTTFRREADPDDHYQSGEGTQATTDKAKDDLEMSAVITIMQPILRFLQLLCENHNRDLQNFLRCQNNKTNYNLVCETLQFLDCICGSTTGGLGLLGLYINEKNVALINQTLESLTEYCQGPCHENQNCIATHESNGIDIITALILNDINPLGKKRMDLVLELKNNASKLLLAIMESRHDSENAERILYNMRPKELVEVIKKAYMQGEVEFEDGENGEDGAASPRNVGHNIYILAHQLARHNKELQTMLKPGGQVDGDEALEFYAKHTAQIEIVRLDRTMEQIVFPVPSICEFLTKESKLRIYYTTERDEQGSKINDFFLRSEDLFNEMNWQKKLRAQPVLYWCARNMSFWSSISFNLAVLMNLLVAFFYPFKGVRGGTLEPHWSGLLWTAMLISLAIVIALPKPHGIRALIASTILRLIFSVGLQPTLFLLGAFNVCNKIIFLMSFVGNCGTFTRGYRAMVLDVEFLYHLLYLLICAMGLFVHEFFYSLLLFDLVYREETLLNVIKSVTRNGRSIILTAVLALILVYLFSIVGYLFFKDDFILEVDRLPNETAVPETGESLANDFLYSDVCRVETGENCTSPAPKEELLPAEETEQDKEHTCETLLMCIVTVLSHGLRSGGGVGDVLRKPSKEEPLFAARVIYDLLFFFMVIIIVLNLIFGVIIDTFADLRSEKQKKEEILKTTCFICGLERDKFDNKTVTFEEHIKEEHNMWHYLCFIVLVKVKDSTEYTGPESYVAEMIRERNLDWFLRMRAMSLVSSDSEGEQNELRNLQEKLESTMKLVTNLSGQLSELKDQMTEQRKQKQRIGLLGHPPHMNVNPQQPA

For orientation: Kd means the concentration at which binding is half-saturated. “Amino acid region 224–579: 356-residue polypeptide almost corresponding to the IP3-binding core region”: the Kd in assay [1] (Yoshikawa et al. 1996) is 2.3 nM.

For the substance “G224: fusion polypeptide of GST and amino acids 224–604 (M-224 to K-604) of IP3 receptor”, the “binding to (1,4,5)IP3 and (2,4,5)IP3” value in assay [2] was “binds well”. In assay [2] (purified GST fusion protein (FIG. 3A, 3B)), this substance returned a Kd of 0.083 nM. The same substance registered a Bmax in assay [2] (purified protein) of 1.6 pmol/μg purified protein. For the same substance, the “affinity, times higher than that of polypeptide T734” value in assay [2] (relative to T734) was 500 times. In addition, the “IC50 of IP3-binding inhibition” value in assay [3] is “about 10 μg/ml”. Further, in assay [4] (100 nM IP3 (FIG. 7)), the “concentration required for 50% inhibition of IP3-induced Ca2+ release” value is listed as “about 20 μg/ml”. Further, the “inhibition of IP3-induced Ca2+ release” value in assay [4] (100 μg/ml, 100 nM IP3 (FIG. 6F)) is “almost completely inhibited”.

In assay [2] (purified protein), “G224m30: G224 introduced with K508A mutation; low affinity IP3-binding polypeptide” displayed a Bmax of 3.0 pmol/μg purified protein. Moreover, the Kd is 330 nM in assay [2] (setting [6]) and approximately 330 nM in assay [2] (purified protein, [3H]IP3 binding, listed as G224-m30). In addition, the “IC50 of IP3-binding inhibition” value in assay [3] was determined as 100 µg/mL. The “effect on inhibiting Ca2+ release versus control” value in assay [4] (500 μg/ml, 50 nM IP3) was “Little difference”. For the same substance, in assay [4] (500 μg/ml, 100 nM IP3), the “inhibiting effect on Ca2+ release” value was “no inhibiting effect”.

“N4-T604: protein obtained by deleting amino acids 1–223 of T604; amino acids 224–604”: the “activity, times that of the original T604” value in assay [2] (relative to T604) is given as “about 3 times”.

Take “Purified IP3R: purified natural IP3 receptor, Maeda et al. 1990”: in assay [1] (setting [7]), the Bmax was 2.1 pmol/μg purified protein and the Kd was 83 nM.

Take “T604: polypeptide of amino acids 1–604 (M-1 to K-604) of mouse Type-1 IP3 receptor”: the Kd was 7.6 nM in assay [2] (setting [6]); 45 ± 7.6 nM in assay [5] (3 μg T604 soluble fraction, 9.6 nM [3H]IP3, cold IP3 competition (FIG. 2C)); 45 nM in assay [5] (crude cell lysate / E. coli soluble fraction, 9.6 nM [3H]IP3 competed with cold IP3). Also, the Bmax in assay [5] (E. coli soluble fraction) is 690 pmol/mg protein and 690±64 pmol/mg protein.

Take “T734: N-terminal 734 amino acids of mouse Type-1 IP3 receptor (mIP3R1)”: in assay [1] (E. coli soluble fraction, Yoshikawa et al. 1996), the Bmax is on record as 46 pmol/mg protein. Also, in assay [1] (crude cell lysates, Yoshikawa et al. 1996), the Kd was 50 ± 2.4 nM.
